Data: ChEMBL document CHEMBL1909046, “DrugMatrix in vitro pharmacology data”

Experiments:
[1] = target: T1, C-X-C chemokine receptor type 2 (Homo sapiens, UniProt P25025); format: cell membranes, CHO-K1, Membrane; settings: cho-k1; also: in other assays of this panel Not Active means under 50% inhibition at 10 µM
T1 sequence (P25025 whole entry): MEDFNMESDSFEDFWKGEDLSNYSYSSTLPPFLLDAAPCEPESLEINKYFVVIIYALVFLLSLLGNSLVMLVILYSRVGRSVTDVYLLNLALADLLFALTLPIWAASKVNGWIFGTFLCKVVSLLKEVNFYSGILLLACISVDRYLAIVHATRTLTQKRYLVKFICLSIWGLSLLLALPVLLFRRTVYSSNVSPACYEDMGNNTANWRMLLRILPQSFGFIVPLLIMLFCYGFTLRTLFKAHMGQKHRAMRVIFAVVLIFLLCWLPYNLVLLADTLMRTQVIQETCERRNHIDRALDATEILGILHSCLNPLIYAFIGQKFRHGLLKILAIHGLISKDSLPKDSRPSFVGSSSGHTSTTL

[2] = DRUGMATRIX: Glutamate, NMDA, Phencyclidine radioligand binding (ligand: [3H] TCP); format: cell membranes, Rattus norvegicus, Wistar, Cerebral cortex, Membrane; settings: Not Active = under 50% inhibition at 10 µM
Insulin receptor = Insulin receptor (Rattus norvegicus, UniProt P15127); format: cell membranes, Wistar, Liver, Membrane; also: in other assays of this panel Not Active means under 50% inhibition at 10 µM
Insulin receptor, sequence (P15127 27-759 limits assumed): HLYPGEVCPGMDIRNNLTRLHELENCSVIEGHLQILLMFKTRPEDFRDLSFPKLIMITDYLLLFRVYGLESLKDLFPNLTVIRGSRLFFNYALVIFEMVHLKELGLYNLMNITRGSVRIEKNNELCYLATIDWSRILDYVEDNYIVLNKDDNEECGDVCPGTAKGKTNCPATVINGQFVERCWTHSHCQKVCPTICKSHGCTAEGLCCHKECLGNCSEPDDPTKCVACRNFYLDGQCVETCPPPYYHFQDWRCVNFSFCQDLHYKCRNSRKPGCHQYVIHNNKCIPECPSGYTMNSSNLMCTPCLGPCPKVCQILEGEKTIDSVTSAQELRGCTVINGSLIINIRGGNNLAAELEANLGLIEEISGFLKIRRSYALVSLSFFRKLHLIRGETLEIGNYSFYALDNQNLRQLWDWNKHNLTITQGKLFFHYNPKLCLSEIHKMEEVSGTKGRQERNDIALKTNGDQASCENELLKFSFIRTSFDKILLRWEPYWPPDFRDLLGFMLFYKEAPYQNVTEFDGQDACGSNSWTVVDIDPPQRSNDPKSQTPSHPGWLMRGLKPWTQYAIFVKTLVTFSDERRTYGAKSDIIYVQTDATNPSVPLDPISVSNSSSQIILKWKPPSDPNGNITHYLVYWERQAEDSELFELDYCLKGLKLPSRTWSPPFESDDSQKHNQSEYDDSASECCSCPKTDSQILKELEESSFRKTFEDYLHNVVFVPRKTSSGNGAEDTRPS
Insulin receptor, sequence (P15127 764-1383 limits assumed): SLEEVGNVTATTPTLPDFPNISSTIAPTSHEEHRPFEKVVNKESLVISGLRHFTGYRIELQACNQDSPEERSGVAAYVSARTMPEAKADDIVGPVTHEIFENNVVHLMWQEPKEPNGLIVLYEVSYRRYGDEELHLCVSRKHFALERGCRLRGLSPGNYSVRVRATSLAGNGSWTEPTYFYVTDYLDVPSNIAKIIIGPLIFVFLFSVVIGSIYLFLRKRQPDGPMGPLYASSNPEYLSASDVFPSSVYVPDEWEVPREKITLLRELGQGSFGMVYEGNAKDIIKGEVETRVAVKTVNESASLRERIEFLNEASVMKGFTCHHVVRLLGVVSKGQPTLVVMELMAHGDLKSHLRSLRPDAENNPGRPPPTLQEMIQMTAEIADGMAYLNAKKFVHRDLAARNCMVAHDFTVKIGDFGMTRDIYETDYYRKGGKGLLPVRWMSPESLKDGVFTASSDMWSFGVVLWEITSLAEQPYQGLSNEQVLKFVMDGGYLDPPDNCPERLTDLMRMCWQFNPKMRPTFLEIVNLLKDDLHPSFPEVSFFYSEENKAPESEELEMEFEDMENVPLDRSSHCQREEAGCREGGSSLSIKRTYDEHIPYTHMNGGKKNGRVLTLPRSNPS

[3] = target: T2, Polyunsaturated fatty acid lipoxygenase ALOX15 (Oryctolagus cuniculus, UniProt P12530); test: biochemical; format: tissue-based, Reticulocytes;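 also: inhibition of 15-lipoxygenase enzyme activity measured with linoleic acid as the substrate; in other assays of this panel Not Active means under 50% inhibition at 10 µM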
T2 sequence (P12530 whole entry): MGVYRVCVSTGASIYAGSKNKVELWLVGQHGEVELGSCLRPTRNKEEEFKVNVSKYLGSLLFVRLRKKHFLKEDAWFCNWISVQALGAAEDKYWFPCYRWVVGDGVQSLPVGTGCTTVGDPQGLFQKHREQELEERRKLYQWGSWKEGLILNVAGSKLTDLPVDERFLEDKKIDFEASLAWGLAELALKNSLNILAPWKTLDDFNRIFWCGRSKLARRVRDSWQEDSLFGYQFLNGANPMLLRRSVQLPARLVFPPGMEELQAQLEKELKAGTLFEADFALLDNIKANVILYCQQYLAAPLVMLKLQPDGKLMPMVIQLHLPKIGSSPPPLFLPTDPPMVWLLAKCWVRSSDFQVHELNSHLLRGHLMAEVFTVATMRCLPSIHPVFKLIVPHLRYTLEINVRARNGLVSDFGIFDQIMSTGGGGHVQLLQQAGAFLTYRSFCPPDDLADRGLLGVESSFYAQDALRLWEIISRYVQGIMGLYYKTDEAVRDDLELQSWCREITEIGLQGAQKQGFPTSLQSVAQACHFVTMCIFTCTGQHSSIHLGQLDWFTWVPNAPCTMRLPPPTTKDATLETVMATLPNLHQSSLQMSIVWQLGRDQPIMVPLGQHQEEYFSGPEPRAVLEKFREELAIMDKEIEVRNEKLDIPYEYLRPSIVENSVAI

[4] = target: Protein kinase C alpha type (Homo sapiens, UniProt P17252); format: cell-based; settings: sf9;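 also: inhibition of PKCalpha kinase activity measured in an enzyme assay with histone as the phosphorylation substrate; in other assays of this panel Not Active means under 50% inhibition at 10 µM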
[5] = target: Mitogen-activated protein kinase 1 (Homo sapiens, UniProt P28482); test: DRUGMATRIX: Protein Serine/Threonine Kinase, ERK2 enzyme inhibition (substrate: Myelin Basic Protein); design: species or system Escherichia coli; settings: Not Active = under 50% inhibition at 10 µM
Mitogen-activated protein kinase 1, sequence (P28482 whole entry): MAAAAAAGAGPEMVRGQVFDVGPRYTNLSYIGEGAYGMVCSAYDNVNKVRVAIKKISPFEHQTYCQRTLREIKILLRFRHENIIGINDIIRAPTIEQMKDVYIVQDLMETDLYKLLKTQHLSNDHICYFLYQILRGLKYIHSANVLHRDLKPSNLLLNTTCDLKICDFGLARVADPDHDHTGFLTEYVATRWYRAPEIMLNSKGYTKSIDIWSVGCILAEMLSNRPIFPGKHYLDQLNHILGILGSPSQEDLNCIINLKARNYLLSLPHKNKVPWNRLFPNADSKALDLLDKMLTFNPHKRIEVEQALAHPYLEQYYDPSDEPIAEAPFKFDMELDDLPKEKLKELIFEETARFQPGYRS

[6] = target: 5-hydroxytryptamine receptor 1B (Rattus norvegicus, UniProt P28564); format: cell membranes, Wistar, Cerebral cortex, Membrane; also: in other assays of this panel Not Active means under 50% inhibition at 10 µM
5-hydroxytryptamine receptor 1B, sequence (P28564 whole entry): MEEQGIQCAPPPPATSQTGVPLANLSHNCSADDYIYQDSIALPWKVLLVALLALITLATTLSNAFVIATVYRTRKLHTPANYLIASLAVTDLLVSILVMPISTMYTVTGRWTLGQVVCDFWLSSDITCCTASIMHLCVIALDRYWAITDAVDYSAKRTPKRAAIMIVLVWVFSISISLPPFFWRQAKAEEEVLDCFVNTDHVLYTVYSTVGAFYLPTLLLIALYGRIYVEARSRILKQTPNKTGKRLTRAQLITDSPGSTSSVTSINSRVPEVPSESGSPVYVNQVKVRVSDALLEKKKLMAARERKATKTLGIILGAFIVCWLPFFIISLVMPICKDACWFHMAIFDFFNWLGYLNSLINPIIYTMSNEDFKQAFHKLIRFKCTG

| Molecule | IC50 [1] | Ki [1] | IC50 [2] | Ki [2] | IC50 (Insulin receptor) | Ki (Insulin receptor) | IC50 ([3]; reticulocytes) | Ki ([3]; reticulocytes) | IC50 [4] | Ki [4] | IC50 [5] | Ki [5] | IC50 [6] | Ki [6] | IC50 ([3]; read-out: IC50) [nM] | IC50 ([5]; read-out: IC50) [nM] | IC50 ([6]; read-out: IC50) [nM] | Ki ([6]; read-out: Ki) [nM] |
| --- | --- | --- | --- | --- | --- | --- | --- | --- | --- | --- | --- | --- | --- | --- | --- | --- | --- | --- |
| LEAD(IV) ACETATE | Not Active | Not Active | Not Active | Not Active | Not Active | Not Active | Not Active | Not Active | Not Active | Not Active | Not Active | Not Active | Not Active | Not Active |  |  |  |  |
| O=C(c1ccccc1)c1ccc2n1CCC2C(=O)O (centres undefined) [KETOROLAC] | Not Active |  | Not Active | Not Active | Not Active |  | Not Active |  | Not Active |  | Not Active |  | Not Active |  |  |  |  |  |
| CC[C@H](C)[C@@H](CO[C@@H](Cc1ccccc1)C(=O)N[C@@H](CCS(C)(=O)=O)C(=O)OC(C)C)NC[C@@H](N)CS | Not Active |  | Not Active | Not Active | Not Active |  | Not Active |  | Not Active |  | Not Active |  | Not Active |  |  |  |  |  |
| CN1C(=O)OC(C)(C)C1=O [TRIMETHADIONE] | Not Active |  | Not Active | Not Active | Not Active |  | Not Active |  | Not Active |  | Not Active |  | Not Active |  |  |  |  |  |
| CCC(C)(C)C(=O)O[C@H]1C[C@@H](C)C=C2C=C[C@H](C)[C@H](CC[C@@H]3C[C@@H](O)CC(=O)O3)[C@H]21 [SIMVASTATIN] | Not Active |  | Not Active | Not Active | Not Active |  | Not Active |  | Not Active |  | Not Active |  | Not Active |  |  |  |  |  |
| Cc1ccc(S(=O)(=O)NC(=O)NN2CCCCCC2)cc1 [TOLAZAMIDE] | Not Active |  | Not Active | Not Active | Not Active |  |  |  | Not Active |  | Not Active |  | Not Active |  | 5110 |  |  |  |
| CC(Cl)(Cl)Cl [TRICHLOROETHANE] | Not Active |  | Not Active | Not Active | Not Active |  | Not Active |  | Not Active |  | Not Active |  | Not Active |  |  |  |  |  |
| CC(C)(C)NC[C@H](O)COc1cccc2c1CCCC2=O [LEVOBUNOLOL] | Not Active |  | Not Active | Not Active | Not Active |  | Not Active |  | Not Active |  | Not Active |  | Not Active |  |  |  |  |  |
| CCN1CCCC1CNC(=O)c1cc(S(N)(=O)=O)ccc1OC (centres undefined) [SULPIRIDE] | Not Active |  | Not Active | Not Active | Not Active |  | Not Active |  | Not Active |  | Not Active |  | Not Active |  |  |  |  |  |
| Cc1cccc(C)c1NC(=O)C(C)N (centres undefined) [TOCAINIDE] | Not Active |  | Not Active | Not Active | Not Active |  | Not Active |  | Not Active |  | Not Active |  | Not Active |  |  |  |  |  |
| CCOC(=O)C1=C(C)NC(C)=C(C(=O)OCC)C1c1ccccc1/C=C/C(=O)OC(C)(C)C [LACIDIPINE] | Not Active |  | Not Active | Not Active | Not Active |  | Not Active |  | Not Active |  | Not Active |  | Not Active |  |  |  |  |  |
| C=CCc1ccc2c(c1)OCO2 [SAFROLE] | Not Active |  | Not Active | Not Active | Not Active |  | Not Active |  | Not Active |  | Not Active |  | Not Active |  |  |  |  |  |
| O=C(OC[C@H]1O[C@@H](OC(=O)c2cc(O)c(O)c(OC(=O)c3cc(O)c(O)c(O)c3)c2)[C@H](OC(=O)c2cc(O)c(O)c(OC(=O)c3cc(O)c(O)c(O)c3)c2)[C@@H](OC(=O)c2cc(O)c(O)c(OC(=O)c3cc(O)c(O)c(O)c3)c2)[C@@H]1OC(=O)c1cc(O)c(O)c(OC(=O)c2cc(O)c(O)c(O)c2)c1)c1cc(O)c(O)c(OC(=O)c2cc(O)c(O)c(O)c2)c1 [TANNIC ACID] | Not Active |  | Not Active | Not Active | Not Active |  |  |  | Not Active |  |  |  | Not Active |  | 268 | 185 |  |  |
| CO[C@@]12[C@H](COC(N)=O)C3=C(C(=O)C(C)=C(N)C3=O)N1C[C@@H]1N[C@@H]12 [MITOMYCIN] | Not Active |  | Not Active | Not Active | Not Active |  | Not Active |  | Not Active |  | Not Active |  | Not Active |  |  |  |  |  |
| CN1C[C@H](CNC(=O)OCc2ccccc2)C[C@@H]2c3cccc4c3c(cn4C)C[C@H]21 [METERGOLINE] | Not Active |  | Not Active | Not Active | Not Active |  | Not Active |  | Not Active |  | Not Active |  |  |  |  |  | 19 | 11 |
| Cc1[nH]c(=O)c(C#N)cc1-c1ccncc1 [MILRINONE] | Not Active |  | Not Active | Not Active | Not Active |  | Not Active |  | Not Active |  | Not Active |  | Not Active |  |  |  |  |  |
| O=C1CC[C@@]2(O)[C@H]3Cc4ccc(O)c5c4[C@@]2(CCN3CC2CC2)[C@H]1O5 [NALTREXONE] | Not Active |  | Not Active | Not Active | Not Active |  | Not Active |  | Not Active |  | Not Active |  | Not Active |  |  |  |  |  |
| COC(=O)Nc1nc2ccc(C(=O)c3ccccc3)cc2[nH]1 [MEBENDAZOLE] | Not Active |  | Not Active | Not Active | Not Active |  | Not Active |  | Not Active |  | Not Active |  | Not Active |  |  |  |  |  |
| CC(=O)O[C@]1(C(C)=O)CC[C@H]2[C@@H]3C[C@H](C)C4=CC(=O)CC[C@]4(C)[C@H]3CC[C@@]21C [MEDROXYPROGESTERONE ACETATE] | Not Active |  | Not Active | Not Active | Not Active |  | Not Active |  | Not Active |  | Not Active |  | Not Active |  |  |  |  |  |
| Cc1cn([C@H]2C=C[C@@H](CO)O2)c(=O)[nH]c1=O [STAVUDINE] | Not Active |  | Not Active | Not Active | Not Active |  | Not Active |  | Not Active |  | Not Active |  | Not Active |  |  |  |  |  |
| Cc1cnc(NC(=O)C2=C(O)c3ccccc3S(=O)(=O)N2C)s1 [MELOXICAM] | Not Active |  | Not Active | Not Active | Not Active |  | Not Active |  | Not Active |  | Not Active |  | Not Active |  |  |  |  |  |
| CC(O)C(=O)O (centres undefined) [LACTIC ACID] | Not Active |  | Not Active | Not Active | Not Active |  | Not Active |  | Not Active |  | Not Active |  | Not Active |  |  |  |  |  |
| C1CCN2C[C@@H]3C[C@@H](CN4CCCC[C@@H]34)[C@H]2C1 [SPARTEINE] | Not Active |  | Not Active | Not Active | Not Active |  | Not Active |  | Not Active |  | Not Active |  | Not Active |  |  |  |  |  |
| CC(N)C12CC3CC(CC(C3)C1)C2 (centres undefined) [RIMANTADINE] | Not Active |  | Not Active | Not Active | Not Active |  | Not Active |  | Not Active |  | Not Active |  | Not Active |  |  |  |  |  |
